Laboratory results: patent US12343397B2, “Drug-resistant immune cells and methods of use thereof” (Regents of the University of Minnesota, priority 2018, dated 2025)

Columns and labels:
xeno-GVHD model = experiment: Xenogeneic GVHD model (NSG mice given human PBMC); format: in vivo; settings: 30 mg/kg, day 0-28
Protocol: FIGS. 11A-11D depicts the monitoring of GVHD in mice. Human PBMC (15×10^6) were injected into irradiated (50 rad) NSG mice±methylprednisolone (15 mg/kg), and signs of GVHD were monitored. FIG. 11A depicts a schematic illustration of the experiments indicating cohorts (n=7 mice each), dosing schedule, and analysis points. FIG. 11B depicts Kaplan-Meier survival curves for mice receiving PBMC only, or PBMC+prednisolone (p=0.104). FIG. 11C depicts disease progression monitored by weight loss (p=not significant). FIG. 11D depicts disease progression monitored by quantitating the number of PBMC-derived CD45+, CD4+, CD8+, and CD4+Foxp3+ T cells (p<0.03, <0.05, <0.03, and not significant, respectively). Animals were bled on day 19 for assessment.
FIGS. 12A-12D depicts the monitoring of GVHD in mice. […] FIG. 12B depicts Kaplan-Meier survival curves for mice receiving PBMC only, or PBMC+CNI (PBMC only vs. FK506 (36 mg/kg), p≤0.04). FIG. 12C depicts disease progression monitored by weight loss (p=not significant). FIG. 12D depicts disease progression monitored by quantitating the number of PBMC-derived CD45+, CD4+, CD8+, and CD4+Foxp3+ T cells (p<0.03, <0.05, <0.02, and not significant, respectively). Animals were bled on day 18 for assessment.
A follow up study has shown that xeno-GVHD pathology induced with 200 rad+1×10^7 human PBMC is more reproducible, and median survival is reduced from ˜25 days to ˜20 days.

[1] = tested on: lethally irradiated BALB/c recipients of C57BL/6 (B6) donor bone marrow + T cells; experiment: Steroid GVHD prophylaxis and therapy in allogeneic BMT recipients; format: in vivo, mouse; settings: for GVHD therapy outcome / survival vs vehicle: 10 mg/kg/day day 3-28, 1.5×10^6 T cells
Protocol: FIG. 8 depicts steroid dose responses for GVHD prophylaxis in allogeneic BMT recipients. n=8 per group. BALB/c mice were lethally irradiated, given B6 BM+2 M T cells and steroids at the indicated doses from day 1-28. A low rapamycin dose (day 0-14, 3 times a week through day 27) was used as a comparator.
FIG. 9 depicts steroid based GVHD therapy in allogeneic BMT recipients. n=8 per group. BALB/c mice were lethally irradiated, given B6 BM+1.5 M T cells and steroids at 10 mg/kg/day day 3-28 or 4-28 as indicated.
FIG. 10 depicts steroid based GVHD therapy in allogeneic BMT recipients. n=15 (BM-Circles), 16 (Vehicle-Squares) and 25 (Prednisolone-Triangles). BALB/c mice were lethally irradiated, given B6 BM+1.5 M T cells and steroids at 10 mg/kg/day day 3-28.
To test whether gene modified (GR2-CRISPR/Cas9) or gene edited (GR2-CRISPR/Cas9/AAV-CaN mut.) Tregs have increased efficacy in vivo in the presence of glucocorticoid, how glucocorticoid (methyl-prednisolone) effects GVHD in preclinical mouse models was first determined. […] For these reasons, as well as the more logistically feasible and cost effective benefits of an allogeneic GVHD model, optimized steroid use in allogeneic recipients for GVHD prevention and therapy were first tested, and then applied to a xenogeneic model to enable testing of the human Treg product. Using lethally irradiated BALB/c recipients of C57BL/6 (B6) donor bone marrow+2×10^6 T cells, methyl-prednisolone at doses of 1, 3, and 6 mg/kg/dose were tested days 1-28 vs. rapamycin at 0.5 mg/kg/day, days 0-14 then 3×/week through day 27. The T cell dose was reduced to 1.5×10^6 and moved to GVHD therapy beginning on day 3 or day 4 (rather than day 1 prophylaxis) and compared no treatment to vehicle to prednisolone (n=8/group).
Delaying prednisolone treatment until day 4 was ineffective. Next, an experiment was performed to determine whether prednisolone at 10 mg/kg d3-28 was reproducible, and it was observed that this was the case (FIG. 10).

NR3C1 = experiment: Base editing of NR3C1 in Tregs (Sanger sequencing, EditR); format: cell-based, human; settings: Tregs electroporated with base editor mRNA and guide RNA
Text: Treg cells were base edited by electroporation of the base editor as protein or mRNA encoding said base editor, along with a guide RNA to target bases for editing with said base editor. The genomic DNA of the edited cells was then isolated and the target locus was PCR amplified. The PCR amplified locus was then sequenced by Sanger sequencing. Base conversion was observed by identifying multiple peaks at the target site. The PCR amplicon sequence data then underwent decomposition using the EDITR method to quantify base editing frequency (see, Kluesner et al. “EditR: A novel base editing quantification software using Sanger sequencing”.DOI: 10.1101/213496.2017). For FIGS. 19-22, and 24-27, the base edited sequences are marked by red open boxes.
FIG. 16 depicts a schematic showing base editing wherein the CRISPR deactivated or nicking DNA binding domain is a dCas9, and the base-editing domain is a cytidine deaminase. Base editors can be delivered as RNP complexes whereby the guide RNA may or may not be modified with phosphorothioate bonds to prevent intracellular degradation by endogenous RNAses. […] Further, the sequences at exon:intron boundaries defined as splice donors and acceptors that are required for intron excision and proper open reading frame orientation and expression were also targeted for conversion in order to disrupt splicing. […]

Tregs = experiment: Survival of CRISPR/Cas9 NR3C1 knockout Tregs ± Dexamethasone; format: cell-based, human; settings: Tregs electroporated with CRISPR/Cas9 RNP; Dexamethasone 30 μg/ml, 48 hours
Protocol: FIGS. 4A-4D depicts CRISPR/Cas9-mediated NR3C1 knockout in Tregs. Guide RNA candidates GR1 and GR2 were electroporated into activated Tregs as a ribonucleoprotein particle (RNP) with the Cas9 peptide. FIG. 4A depicts a schematic illustrating the culture process. FIG. 4B depicts a plot assessing the survival of Tregs after 72 h 30 μg/mL of Dexamethasone was added in the conditions as indicated. […] The NR3C1 locus was amplified from the pool of cells and indel analysis was performed by TIDE. The total gene modification rates were 35% and 44% for the pre- and post-Dexamethasone cells, respectively. The graph corresponds to the indel pattern observed in each population. […]
To determine whether the GR1 and GR2 guides were also capable of knocking out the NR3C1 locus in cultures of clinically-relevant Tregs, banked Tregs were thawed and re-stimulated with anti-CD3/28 beads in high dose IL-2 (300 U/ml). […] After 2 days, Treg cultures were harvested and were re-cultured±Dexamethasone (30 μg/ml) for an additional 48 hours (7 days total), at which time cultures were harvested, and relative survival was assessed by flow cytometry using a viability dye and counting beads. […] As such, the indel pattern using a sequence trace decomposition algorithm called TIDE (tracking of indels by decomposition) was assessed. Pre- and post-Dexamethasone exposure samples were analyzed (FIGS. 4C and 4D, respectively). […]

exon 2 of NR3C1 = experiment: Surveyor nuclease assay of NR3C1 gRNA candidates in human primary T-cells; format: cell-based; settings: Cas9 with gRNA
Protocol: FIGS. 3A-3D depicts the process of gene editing of NR3C1 glucocorticoid receptor by CRISPR guide RNA and Cas9. FIG. 3A depicts a schematic illustrating the process of gene transfer. T cells or Tregs were harvested and activated with CD3/CD28 beads for 48 h (fresh) or 72 h (frozen). The Neon electroporation device was used to deliver Cas9 mRNA or protein with a gene specific guide RNA. FIG. 3B depicts a schematic illustrating NR3C1 gene targeting. Four sites in exon 2 were identified and tested. Four candidates were identified. The candidates were tested using the Surveyor method. FIG. 3C depicts a schematic illustrating the Surveyor assay. Gene modified (“mutant amplicon”) and unmodified (“wild type amplicon”) are hybridized resulting in homo- or heteroduplexes. Heteroduplexes caused by pairing of gene edited and wild type sequences are cleaved by the Surveyor enzyme resulting in predictable DNA fragments.
Using these parameters the use of CRISPR/Cas9 engineering of T-cells was pursued using the experimental schema as shown in FIG. 3A. Human primary T-cells were grown in the presence of IL-2 and activated with CD3/CD28 beads for 48-72 hours. The CRISPR/Cas9 reagents used a guide RNA transcript (Synthego) and recombinant Cas9 peptide (Aldevron) that were delivered using the Neon electroporation device (ThermoFisher). […]

NR3C1 locus = experiment: Indel analysis of the NR3C1 locus by TIDE; format: cell-based, human
Protocol: FIGS. 4A-4D depicts CRISPR/Cas9-mediated NR3C1 knockout in Tregs. Guide RNA candidates GR1 and GR2 were electroporated into activated Tregs as a ribonucleoprotein particle (RNP) with the Cas9 peptide. FIG. 4A depicts a schematic illustrating the culture process. FIG. 4B depicts a plot assessing the survival of Tregs after 72 h 30 μg/mL of Dexamethasone was added in the conditions as indicated. […] The NR3C1 locus was amplified from the pool of cells and indel analysis was performed by TIDE. The total gene modification rates were 35% and 44% for the pre- and post-Dexamethasone cells, respectively. The graph corresponds to the indel pattern observed in each population. Without being bound by any theory, it is predicted that out of frame indels (e.g., those non-divisible by three) will result in gene inactivation. Y-axis indicates the number of indels as a total percentage. X-axis indicates indels relative to unmodified (shown as bar in position 0). Deletions are shown to the left of the 0 position and each bar is between 1-10 bp away from the target site. Insertions of +1 bp are shown to the right of the 0 position. Asterisks show +1, −1, and −7 bp insertions/deletions and the frequency of these events increased with Dexamethasone exposure (comparing FIG. 4C with FIG. 4D), Dark black bars in FIGS. 4C-4D indicate editing events <0.5%.
To determine whether the GR1 and GR2 guides were also capable of knocking out the NR3C1 locus in cultures of clinically-relevant Tregs, banked Tregs were thawed and re-stimulated with anti-CD3/28 beads in high dose IL-2 (300 U/ml). On day 3, the Tregs were electroporated as above in the absence or presence of GR1 or GR2 GRISPR/Cas9 RNP and returned to culture in optimal expansion conditions. After 2 days, Treg cultures were harvested and were re-cultured±Dexamethasone (30 μg/ml) for an additional 48 hours (7 days total), at which time cultures were harvested, and relative survival was assessed by flow cytometry using a viability dye and counting beads. The dose of 30 μg/mL was identified by performing beta testing in Jurkat and primary T-cells that had undergone CRISPR/Cas9 gene modification and Dexamethasone dosing from 0-100 μg/mL. […] CRISPR/Cas9 gene repair by non-homologous endjoining results in insertions and deletions (indel) proximal to the gRNA binding site. As such, the indel pattern using a sequence trace decomposition algorithm called TIDE (tracking of indels by decomposition) was assessed. Pre- and post-Dexamethasone exposure samples were analyzed (FIGS. 4C and 4D, respectively). The frequency of out of frame indels that are predicted to result in gene inactivation in Tregs prior to Dexamethasone addition was ˜35%, which is similar to what was experimentally observed for peripheral blood T cells treated with GR2 GRISPR/Cas9 reagents (˜40%). Following culture in Dexamethasone, the frequency of indels increased to 44%. Without being bound by any theory, this indicates preferential survival of gene modified Tregs.

exon 2 of the NR3C1 gene = experiment: HDR in Tregs, inside-out PCR and Sanger sequencing; format: cell-based, human; settings: AAV-6 donor at various MOI
Protocol: FIGS. 5A-5C depicts homology directed repair (HDR) in Tregs. FIG. 5A depicts the gene targeting strategy. A calcineurin resistant gene co-expressed with GFP was designed such that it could be targeted to exon 2 of the NR3C1 gene resulting in a loss of 21 amino acids. The donor was encapsulated in AAV-6 particles and screening was performed using an inside/out PCR with primers (indicated by horizontal arrows) within the donor and outside of the donor at the target locus. FIG. 5B depicts gene targeting optimization. Activated Tregs were electroporated with NR3C1 Cas9 RNPs and the different indicated amounts of AAV-6 donor were added. Inside/out PCR results are shown with Sanger sequencing confirmation of the junction between the donor and the adjacent locus sequence shown in FIG. 5C.
To achieve dual drug (steroid and calcineurin inhibitor) resistance, Jurkat and primary T-cells were used to define the conditions for optimal homology directed repair (HDR). Cas9 mRNA and Cas9 RNP approaches were compared and assessed for their ability to facilitate HDR using a reporter HDR construct at the human AAVS1 locus. […] Flanking the calcineurin resistance gene were donor targeting arms homologous to the NR3C1 gene such that insertion disrupted exon 2 with concomitant deletion of 21 amino acids (FIG. 5A). […]

| Compound | average weight (xeno-GVHD model) | survival advantage (xeno-GVHD model) | median survival (xeno-GVHD model; controls 29 days) | human CD4+ and CD8+ T cells in the blood (xeno-GVHD model; day 19) | GVHD therapy outcome / survival vs vehicle [1] | GVHD therapy outcome / survival vs vehicle ([1]; listed as Prednisolone) | GVHD therapy outcome ([1]; treatment delayed until day 4) | base editing outcome at the genetic locus (NR3C1) | survival in the presence of Dexamethasone (Tregs) | nuclease activity (Surveyor DNA fragmentation products) (exon 2 of NR3C1) | frequency of indels (NR3C1 locus; Tregs following culture in Dexamethasone) | frequency of out of frame indels (NR3C1 locus; Tregs prior to Dexamethasone addition) | frequency of out of frame indels (NR3C1 locus; peripheral blood T cells) | total gene modification rate (NR3C1 locus; post-Dexamethasone cells, FIG. 4D) | total gene modification rate (NR3C1 locus; pre-Dexamethasone cells, FIG. 4C) | HDR by inside-out PCR (exon 2 of the NR3C1 gene) |
| --- | --- | --- | --- | --- | --- | --- | --- | --- | --- | --- | --- | --- | --- | --- | --- | --- |
| C[C@]12C=CC(=O)C=C1CC[C@@H]1[C@@H]2[C@@H](O)C[C@@]2(C)[C@H]1CC[C@]2(O)C(=O)CO [prednisolone] | not significantly different than controls | did not offer a survival advantage | 25 days | significantly more human CD4+ and CD8+ T cells | improved outcome | significantly better than vehicle control | ineffective |  |  |  |  |  |  |  |  |  |
| GR2: gRNA TTGAGAAGCGACAGCCAGTG (anti-sense), exon 2 of NR3C1 (guide UUGAGAAGCGACAGCCAGUG; RNA, backbone not given here; 5' and 3' phosphorothioate bonds) |  |  |  |  |  |  |  | premature TAG stop codon | significantly increased survival | exhibited the highest activity levels | 44% | ~35% | ~40% | 44% | 35% | HDR was observed in Tregs at each MOI |
| GR1: gRNA AACCAAAAGTCTTCGCTGCT (anti-sense), exon 2 of NR3C1 (guide AACCAAAAGUCUUCGCUGCU; RNA, backbone not given here; 5' and 3' phosphorothioate bonds) |  |  |  |  |  |  |  | premature TAA stop codon |  | exhibited the highest activity levels |  |  |  |  |  |  |
